We go through 13 compounds from patent publication US9663496B2, “AMPK-activating heterocyclic compounds and methods for using the same” (Rigel Pharmaceuticals, Inc., priority 2010, dated 2017).

One may read the EC50 as the concentration giving half of the maximal effect. Low values mean higher potency in that assay, high ones lower potency in that assay.

The experiment has as its target AMPK. The experiment can be described thus: AMPK activation, enzyme-linked immunosorbent assay. To be noted: EC50 for AMPK activation, ELISA. The experiment is classed as biochemical. In short, it runs like this: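 Test compounds were added, and kinase activation was then detected by immunoassay following established kit procedures.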
The compound `O=C(NC1CCN(c2ccc(F)cc2)CC1)c1ccc(C(=O)N2CCN(Cc3ccc(F)cc3)CC2)nc1` [Compound 404, 6-(4-(4-fluorobenzyl)piperazine-1-carbonyl)-N-(1-(4-fluorophenyl)piperidin-4-yl)nicotinamide] came in with an EC50 of 1000 to 5000 nM.

As to `COc1cccc(CN2CCC(NC(=O)c3ccc(C(=O)N4CCC(S(=O)(=O)c5ccc(F)cc5)CC4)nc3)CC2)c1` [Compound 475, 6-(4-(4-fluorophenylsulfonyl)piperidine-1-carbonyl)-N-(1-(3-methoxybenzyl)piperidin-4-yl)nicotinamide], the EC50 is 1000 to 5000 nM.

Take `N#Cc1ccc(CN2CC[C@@H](NC(=O)c3ccc(C(=O)N4CCN(Cc5ccc(F)cc5)CC4)cn3)[C@@H](F)C2)cc1` [Compound 100]: the EC50 was below 500 nM.

Regarding `O=C(Nc1ccc(Oc2ccc(F)cc2)nc1)c1ccc(C(=O)N2CCC(C(=O)c3ccc(F)c(F)c3)CC2)cn1` [Compound 330, 5-(4-(3,4-difluorobenzoyl)piperidine-1-carbonyl)-N-(6-(4-fluorophenoxy)pyridin-3-yl)picolinamide], the 50% effective concentration (EC50) was 500 to 1000 nM.

The compound `N#Cc1ccc(OC2CCN(C(=O)c3ccc(C(=O)NC4CCN(c5ccc(F)cc5)CC4)cn3)CC2)cc1` [Compound 422, 6-(4-(4-cyanophenoxy)piperidine-1-carbonyl)-N-(1-(4-fluorophenyl)piperidin-4-yl)nicotinamide] yielded an EC50 of 1000 to 5000 nM.

`COc1ccc(C(=O)C2CCN(C(=O)c3ccc(C(=O)Nc4ccc(Oc5ccc(C#N)cc5)nc4)cn3)CC2)cc1` [Compound 460, N-(6-(4-cyanophenoxy)pyridin-3-yl)-6-(4-(4-methoxybenzoyl)piperidine-1-carbonyl)nicotinamide] displayed a half-maximal effective concentration (EC50) below 500 nM.

Regarding `CN(C)C(=O)c1ccc(OC2CCN(C(=O)c3ccc(C(=O)NC4CCN(Cc5ccc(C#N)cc5)CC4)nc3)CC2)cc1` [Compound 357, N-(1-(4-cyanobenzyl)piperidin-4-yl)-5-(4-(4-(dimethylcarbamoyl)phenoxy)piperidine-1-carbonyl)picolinamide], the EC50 is below 500 nM.

For `N#Cc1ccc(OC2CCN(C(=O)c3ccc(C(=O)NC4CCN(Cc5cc(F)cc(F)c5)CC4)cn3)CC2)cc1` [Compound 322, 6-(4-(4-cyanophenoxy)piperidine-1-carbonyl)-N-(1-(3,5-difluorobenzyl)piperidin-4-yl)nicotinamide], the EC50 was below 500 nM.

Compound `O=C(c1ccc(C(=O)N2CCN(CCc3ccccc3)CC2)nc1)N1CCN(CCc2ccccc2)CC1` [Compound 92, pyridine-2,5-diylbis((4-phenethylpiperazin-1-yl)methanone)] displayed an EC50 above 10000 nM.

Turning to `COc1ccc(C(=O)C2CCN(C(=O)c3ccc(C(=O)N[C@@H]4CCN(Cc5csc(C)n5)C[C@@H]4F)cn3)CC2)cc1` [Compound 427, N-((3S,4R)-3-fluoro-1-((2-methylthiazol-4-yl)methyl)piperidin-4-yl)-6-(4-(4-methoxybenzoyl)piperidine-1-carbonyl)nicotinamide], the EC50 lay within 1000 to 5000 nM.

`N#Cc1ccc(O[C@H]2CC[C@@H](NC(=O)c3ccc(C(=O)N4CC[C@H](Oc5ccc(F)cc5)C4)cn3)CC2)cc1` [Compound 176, N-((cis)-4-(4-cyanophenoxy)cyclohexyl)-5-((S)-3-(4-fluorophenoxy)pyrrolidine-1-carbonyl)picolinamide] showed an EC50 of 1000 to 5000 nM.

`COc1ccc(O[C@H]2CC[C@@H](NC(=O)c3ccc(C(=O)N4CCC(C(=O)c5ccc(OC)cc5)CC4)cn3)CC2)cc1` [Compound 184, 5-(4-(4-methoxybenzoyl)piperidine-1-carbonyl)-N-((cis)-4-(4-methoxyphenoxy)cyclohexyl)picolinamide] had an EC50 below 500 nM.

For `O=C(N[C@H]1CC[C@@H](Oc2ccc(F)cc2)CC1)c1ccc(C(=O)N2CCC(C(=O)c3ccc(F)cc3)CC2)cn1` [Compound 304, 5-(4-(4-fluorobenzoyl)piperidine-1-carbonyl)-N-((cis)-4-(4-fluorophenoxy)cyclohexyl)picolinamide], the concentration giving a half-maximal response (EC50) was below 500 nM.
